Data from patent US7271187B2, “Compositions and methods for promoting tissue regeneration” (priority 2000, dated 2007).

What was measured:
[1] = system: compressive injuries to the spinal cords of rats; test: Compressive spinal cord injury, closure of cavities; type: in vivo, rat; details: compound in a saline vehicle; vs untreated or saline treated rats
Description: In another study, cavities are induced by compressive injuries to the spinal cords of rats. In the study, rats are either untreated, treated with a saline vehicle, or treated with N-[4-[(4-fluorophenyl)sulfonyl]phenyl]acetamide in a saline vehicle.

PND5 rat cultures = test: Post natal day 5 rat cortical/subventricular zone cultures, immunostaining; type: cell-based
Description: The method of the invention is also exemplified by a second embodiment in which N-[4-[(4-fluorophenyl)sulfonyl]phenyl]acetamide is administered in vitro to tissue from postnatal mammals. Treatment with N-[4-[(4-fluorophenyl)sulfonyl]phenyl]acetamide results in neuroregeneration as evidenced by immunostaining for beta-tubulin, eNCAM and MAP II. Neural tissue harvested from Post Natal day 5 (PND5) animals can be prepared in culture by the method above used with E18 cells, except that the cultures are not treated with glutamate because the neurons are unable to survive the culture preparation step. Using an assay system, cells can be treated with N-[4-[(4-fluorophenyl)sulfonyl]phenyl]acetamide 24 hours after the cultures are established.
In one study, PND-5 day cultures generated from tissue isolated specifically from the subventricular zone were compared to cultures generated from the whole cortex. Twenty four hours after dissection, cultures were treated with the compound. Four weeks after treatment, cultures were immunostained with antibodies against β-tubulin or antibodies against MAP II.
Post natal day 5 rat pups (Taconic Labs) were decapitated, skin covering the cranium was removed so the bone over top the brain could be opened. Using a sterile spatula, the brain was extracted from the opened cranium and transferred to a 60 mm petri dish (Corning) containing sterile, ice cold Hank's balanced salt solution (HBSS). The meningial tissue was removed from the cortex, the cortex was gently teased away from the subcortical structures and transferred to a new 60 mm petri dish containing ice cold HBSS. Using a pair of fine, curved forceps, the desired cortical material was pinched from the remainder of the cortex and transferred to a new 60 mm petri dish containing ice cold HBSS. For most experiments, only tissue in the immediate vicinity of the subventricular zone was collected while in a few experiments, almost the entire cortex was pinched leaving only the outer most layer of cortical tissue behind. After harvesting all cortical tissue, the tissue was minced using two #11 scalpel blades that were repeatedly drawn across each other. After the majority of the tissue was minced into approximately 1 mm cubes, the HBSS was removed and replaced with 4 ml of trypsin/EDTA (Gibco—0.5%/5.3 mM) plus 1 ml of DNase (Sigma—0.01%). The petri dish containing tissue and enzymes were placed in a 37° C. incubator for 30 minutes and agitated every 5 minutes. After 30 minutes, the tissue was removed from the incubator and 1 ml 0.1 mg/ml of soybean trypsin inhibitor was added. Tissue was transferred to a 15 ml conical tube, spun at 500×g for 10 minutes in a refrigerated centrifuge. Supernatant was removed, the pellet was resuspended in 10 ml of DMEM+10% FBS, passed first through a 100 μm filter (Falcon) and finally through a 40 μm filter (Falcon). A cell count was performed to determine the final volume of media needed to yield a cell density of 1×10^6 viable cells per ml. Five hundred microliters of supernatant containing 5×10^5 viable cells was added to each well of 24 well cluster plates previously coated with 5 μg/ml poly lysine.
To remove the cellular debris, all plates were washed 24 hours after plating. Each plate was gently rocked several times, the media was removed and replaced with 1 ml of 37° C. DMEM. […]

passaged astrocytes = test: Highly enriched passaged astrocyte cultures, immunostaining; type: cell-based, rat; details: astrocytes passaged 3 times; untreated controls at a significantly reduced level
Description: The method of the invention is also exemplified by a third embodiment in which astrocytes are passaged 3 times prior to in vitro treatment with the compound and samples derived from the whole cortex were compared to samples enriched for tissue from the subventricular zone.
For some experiments, freshly dissociated cortical cells were plated in poly lysine coated T-75 flasks. Cells were fed twice weekly with DMEM+10% FBS. After reaching confluence, cells were removed from the T-75 flask with typsin/EDTA (Gibco), pelleted and media removed. The cell pellet was resuspended in DMEM+10% FBS and split 1 to 5 into new T-75 flasks. This process was repeated 2 more times. After reaching confluence on the fourth passage, cells were removed from the T-75 flask as describe above and plated on poly lysine coated 24 well cluster plates at a density of 1×10^5 cells per well. Cells were maintained in DMEM+10% FB S until they reached confluence at which point, the media was removed and replaced with NeuralBasal+B27 supplementsN-[4-[(4-fluorophenyl)sulfonyl]phenyl]acetamide was dissolved in 2 hydroxypropyl-β-cyclodextrin and added to cultures at final concentrations ranging from 100 μg/ml to 10 ng/ml. […]

bone marrow cells = test: Nestin expression in bone marrow cells after systemic administration; type: in vivo, rat; details: bone marrow harvested 3-7 days after systemic administration; vs non-treated rats
Description: In some embodiments of the invention, cells, preferably bone marrow cells, can be transferred from a first animal treated according to methods of the invention to a site of chronic spinal cord injury in the first animal or in a second animal.

[2] = study of subventricular zone vs whole cortex cultures, four weeks after treatment

SMILES: CC(=O)Nc1ccc(S(=O)(=O)c2ccc(F)cc2)cc1 [N-[4-[(4-fluorophenyl)sulfonyl]phenyl]acetamide]
- extent of closure of the cavity in the spinal cord [1]: most extensive closure of the cavity
- number of β-tubulin positive cells (PND5 rat cultures; four weeks post treatment, vs untreated control wells): increased numbers of β-tubulin positive cells
- eNCAM expression (PND5 rat cultures; one week post treatment, vs untreated control samples): Enhanced expression of eNCAM
- MAP-II expression (PND5 rat cultures; six weeks post treatment, vs untreated control samples): MAP-II expression is enhanced
- number of MAP II positive cells (PND5 rat cultures; [2]): Greater numbers
- number of β-tubulin positive cells (PND5 rat cultures; [2]): Greater numbers
- beta-tubulin positive cells with neuronal morphologies (passaged astrocytes): show beta-tubulin positive cells with neuronal morphologies
- expression of Nestin in bone marrow cells (bone marrow cells): increased expression of Nestin
